{"source": "patent US8795997B2", "about": "(priority 2009, dated 2014)", "type_in_all_cases": "cell-based", "key": {"[1]": {"test_system": "yeast Saccharomyces cerevisiae", "assay": "Simultaneous saccharification and fermentation (SSF) of sugarcane bagass slurry", "settings": "for Fermentability: 7.5 and 10 mM, 13 and 45 hours (FIG. 9)", "procedure": "The pretreatment of sugarcane bagass for SSF experiments was performed in the Swedish cellulosic ethanol pilot plant (operated by SEKAB E-Technology, Örnskoldsvik, Sweden). Sugarcane bagass was treated in a continuous mode in a 30-liter reactor at a temperature of 198-199° C. and with a residence time of 13-14 min. The feed rate was 24 kg (dry weight) per h and the bagass was impregnated with sulfur dioxide (0.5 kg/h). The pH after pretreatment was 2.7. The dry matter content was 19%. The pretreated material was cooled and stored at 4° C. until further use.\nSSF experiments were also performed with sugarcane bagass slurries. The sugarcane bagass slurries were prepared as described in Example 1. Reducing agents, dithionite and sulphite, respectively, were added 10 min prior to inoculum in concentrations of studied 7.5 and 10 mM. The ethanol concentration was measured after 13 and 45 hours according to the protocol described in Example 1."}, "[2]": {"test_system": "baker's yeast (Saccharomyces cerevisiae)", "procedure": "The pH of the sugarcane bagass and spruce hydrolysates were adjusted to 5.5 with a 5 M solution of sodium hydroxide. The conditioning of each hydrolysate was performed in eight 100-mL glass vessels equipped with magnetic stirrer bars. 26 mL hydrolysate was added to all vessels, and the vessels were placed on a magnetic stirrer plate (IKA-Werke, Staufen, Germany). Sodium dithionite (chemical grade; >87%, Merck, Darmstadt, Germany) was added to hydrolysates in the concentrations 5 and 10 mM. Additions of sodium sulphite to 5 and 10 mM were also performed. The additions were made at room temperature (23° C.) and the samples were kept for 10 min with stirring. The experiments were performed in duplicates.\nThe efficiency of the additions of the reducing agents was compared with alkali detoxification.\nEthanol measurements were performed by using an enzymatic kit (Ethanol UV-method, Boehringer Mannheim GmbH, Mannheim, Germany). Fermentation experiments were performed to evaluate the effectiveness of the additions and treatments. For comparison, untreated hydrolysates were included in the fermentation experiments as well as reference fermentations of sugar-based medium with an amount of fermentable sugars (i.e. glucose and mannose) corresponding to that in the hydrolysate samples. The fermentations were carried out using baker's yeast (Saccharomyces cerevisiae) (Jastbolaget AB, Rotebro, Sweden). The yeast inoculum was prepared in 750-mL cotton-plugged shake flasks with 300 mL YEPD medium (2% yeast extract, 1% peptone, 2% D-glucose). The flasks were inoculated and incubated with agitation at 30° C. for approximately 12 h. The cells were harvested in the late exponential growth phase by centrifugation (Hermla Z206A, Hermle Labortechnik GmbH, Wehingen, Germany) at 1,500 g for 5 min. The cells were resuspended in an appropriate amount of sterile water to achieve an inoculum consisting of 2.0 g/L (cell dry weight) in all fermentation vessels. The fermentation was carried out in 14 25-mL glass flasks equipped with magnets for stirring and sealed with rubber plugs pierced with cannulas for letting out carbon dioxide. The hydrolysate samples (23.75 mL), or alternatively the sugar solution for reference fermentations, were added to the fermentation flasks along with 0.5 mL of a nutrient solution (150 g/L yeast extract, 75 g/L (NH4)2HPO4, 3.75 g/L MgSO4.7H2O, 238.2 g/L NaH2PO4.H2O), and 0.75 mL of yeast inoculum. The flasks were incubated at 30° C. in a water bath with magnetic stirring (IKA-Werke). Samples for measurement of sugars and ethanol were withdrawn during the fermentation. The glucose levels during the fermentation were estimated by using a glucometer (Glucometer Elite XL, Bayer AG, Leverkusen, Germany)."}, "[3]": {"test_system": "yeast Saccharomyces cerevisiae", "assay": "Simultaneous saccharification and fermentation (SSF) of spruce slurry", "settings": "for Final ethanol concentration: after 70 hours", "procedure": "Addition of sodium dithionite and sodium sulphite was tested in an SSF process. Spruce was pretreated as described in Example 1 above. The spruce slurry was adjusted to pH 5.4 with a 5 M solution of sodium hydroxide. Ten 250-mL shake flasks equipped with magnetic stirrer bars were filled with 100 g of spruce slurry. Sodium dithionite or sodium sulphite was added to the slurries to final concentrations of 7.5 and 10 mM. The additions were performed at room temperature (23° C.) for 10 min with stirring. Duplicate experiments were made. Cellulase and cellobiase preparations were prepared and added to the slurry using the enzyme activity loadings as described in Example 1 above. Further, the yeast inoculum was prepared according to Example 1 above. Inoculums were added to give a start concentration of 2.0 g/L (cell dry weight) in every flask. No source of extra nutrients was added. For comparison, two flasks with spruce slurry to which no reducing agents had been added were included in the experiment. The flasks were incubated at 35° C. for 69 h in a water bath with magnetic stirring. The flasks were sealed with Parafilm (Pechiney Plastic Packaging Company, Chicago, Ill., USA) to prevent evaporation of ethanol. Samples were withdrawn for analysis of ethanol according to Examplel above.\nA spruce slurry was prepared according to Examples 1 and 2 above. Different flasks were filled with 100 g each of the spruce slurry and were subjected to a SSF process according to Example 2 above, but with different amounts of dithionite and sulphite added. The produced ethanol was monitored during the fermentation. […]"}, "[4]": {"settings": "spruce hydrolysate, 10 mM (FIGS. 1 and 2)"}, "[5]": {"settings": "spruce hydrolysate, 14 h fermentation, 10 mM"}, "[6]": {"settings": "6 h fermentation, NH4OH detoxification, pH 9, 55° C., 3 h"}, "[7]": {"settings": "spruce hydrolysate, 14 h fermentation, NH4OH detoxification, pH 9, 55° C., 3 h"}}, "note": "Where two headings read alike, the source gives them in different places.", "data": [{"smiles": "O=S([O-])S(=O)[O-].[Na+].[Na+]", "note": "[Dithionite, Sodium dithionite]", "values": [{"measurement": "Fermentability", "setting": "[1]", "result": "improved fermentability"}, {"measurement": "Ethanol production, dithionite compared with sulphite", "setting": "[1]; 10 and 7.5 mM (FIG. 9)", "result": "better than any of the sulphite concentrations"}, {"measurement": "Ethanol concentration compared with other additions", "setting": "[2]; 10 mM (FIG. 4)", "result": "higher ethanol concentration compared to addition of 5 mM dithionite or 10 mM sulphite"}, {"measurement": "Balanced ethanol yield", "setting": "[2]; 6 h fermentation, 10 mM", "result": "0.28 g EtOH/Σglucose & mannose prior to detoxification"}, {"measurement": "Productivity", "setting": "[2]; 6 h fermentation, 10 mM", "result": 3.9, "unit": "g EtOH×L^−1×h^−1"}, {"measurement": "Yield (ethanol)", "setting": "[2]; 6 h fermentation, 10 mM", "result": "0.34 g EtOH/g consumed glucose & mannose"}, {"measurement": "Glucose consumption rates and amounts of ethanol produced", "setting": "[2]; spruce hydrolysate, 5 mM (FIGS. 1 and 2)", "result": "substantial improvement compared to untreated hydrolysate"}, {"measurement": "Glucose consumption rates and amounts of ethanol produced", "setting": "[2]; [4]", "result": "comparable to those of the reference fermentation"}, {"measurement": "Balanced ethanol yield", "setting": "[2]; [5]", "result": "0.34 g EtOH/Σglucose & mannose prior to detoxification"}, {"measurement": "Productivity", "setting": "[2]; [5]", "result": 2.5, "unit": "g EtOH×L^−1×h^−1"}, {"measurement": "Yield (ethanol)", "setting": "[2]; [5]", "result": "0.37 g EtOH/g consumed glucose & mannose"}, {"measurement": "Final ethanol concentration", "setting": "[3]; 2.5 mM", "result": "about 10 g/L"}, {"measurement": "Final ethanol concentration", "setting": "[3]; 5 mM", "result": "35 to 40", "unit": "g/L"}, {"measurement": "Final ethanol concentration", "setting": "[3]; 7.5 mM", "result": "highest ethanol production"}, {"measurement": "Ethanol levels and ethanol formation", "setting": "[3]; 7.5 mM, compared with 10 mM dithionite (FIG. 5)", "result": "reached the same high levels of ethanol, but ethanol formation was slightly slower"}, {"measurement": "Time after which ethanol formation leveled off", "setting": "[3]; 10 mM (FIG. 5)", "result": "about 45 h"}, {"measurement": "Improvement of ethanol production, dithionite compared with sulphite", "setting": "[3]; 10 mM (FIG. 8)", "result": "better improvement than the addition of sulphite"}, {"measurement": "Final ethanol concentration", "setting": "[3]; 10 mM", "result": "highest ethanol production"}, {"measurement": "Final ethanol concentration", "setting": "[3]; 15 mM", "result": "highest ethanol production"}, {"measurement": "Final ethanol concentration", "setting": "[3]; 20 mM", "result": "35 to 40", "unit": "g/L"}, {"measurement": "Final ethanol concentration", "setting": "[3]; 30 mM", "result": "about 30 g/L"}, {"measurement": "Ethanol production compared to untreated", "setting": "[3]; 7.5 and 10 mM (FIG. 5)", "result": "higher ethanol production compared to the untreated hydrolysate"}]}, {"smiles": "O=S([O-])[O-].[Na+].[Na+]", "note": "[Sulphite, sodium sulphite]", "values": [{"measurement": "Fermentability", "setting": "[1]", "result": "improved fermentability"}, {"measurement": "Balanced ethanol yield", "setting": "[2]; 6 h fermentation, 10 mM", "result": "0.21 g EtOH/Σglucose & mannose prior to detoxification"}, {"measurement": "Productivity", "setting": "[2]; 6 h fermentation, 10 mM", "result": 2.9, "unit": "g EtOH×L^−1×h^−1"}, {"measurement": "Yield (ethanol)", "setting": "[2]; 6 h fermentation, 10 mM", "result": "0.32 g EtOH/g consumed glucose & mannose"}, {"measurement": "Glucose consumption rates and amounts of ethanol produced", "setting": "[2]; [4]", "result": "substantial improvement compared to untreated hydrolysate"}, {"measurement": "Balanced ethanol yield", "setting": "[2]; [5]", "result": "0.16 g EtOH/Σglucose & mannose prior to detoxification"}, {"measurement": "Productivity", "setting": "[2]; [5]", "result": 1.2, "unit": "g EtOH×L^−1×h^−1"}, {"measurement": "Yield (ethanol)", "setting": "[2]; [5]", "result": "0.29 g EtOH/g consumed glucose & mannose"}, {"measurement": "Final ethanol concentration", "setting": "[3]; 2.5 mM", "result": "did not result in as high final ethanol concentrations"}, {"measurement": "Final ethanol concentration", "setting": "[3]; 5 mM", "result": "did not result in as high final ethanol concentrations"}, {"measurement": "Final ethanol concentration", "setting": "[3]; 7.5 mM", "result": "35 to 40", "unit": "g/L"}, {"measurement": "Final ethanol concentration", "setting": "[3]; 10 mM", "result": "35 to 40", "unit": "g/L"}, {"measurement": "Final ethanol concentration", "setting": "[3]; 15 mM", "result": "about 40 g/L"}, {"measurement": "Final ethanol concentration", "setting": "[3]; 20 mM", "result": "about 40 g/L"}, {"measurement": "Final ethanol concentration", "setting": "[3]; 30 mM", "result": "about 40 g/L"}, {"measurement": "Ethanol production compared to untreated", "setting": "[3]; 7.5 and 10 mM (FIG. 5)", "result": "higher ethanol production compared to the untreated hydrolysate"}, {"measurement": "Ethanol production compared with dithionite samples", "setting": "[3]; 7.5 and 10 mM (FIG. 5)", "result": "lower ethanol production compared to the samples to which dithionite was added"}, {"measurement": "Time after which ethanol formation leveled off", "setting": "[3]; 7.5 and 10 mM (FIG. 5)", "result": 20, "unit": "h"}]}, {"smiles": "N", "note": "[NH4OH, ammonium hydroxide, reference compound]", "values": [{"measurement": "Balanced ethanol yield", "setting": "[2]; [6]", "result": "0.25 g EtOH/Σglucose & mannose prior to detoxification"}, {"measurement": "Productivity", "setting": "[2]; [6]", "result": 3.5, "unit": "g EtOH×L^−1×h^−1"}, {"measurement": "Yield (ethanol)", "setting": "[2]; [6]", "result": "0.34 g EtOH/g consumed glucose & mannose"}, {"measurement": "Balanced ethanol yield", "setting": "[2]; [7]", "result": "0.37 g EtOH/Σglucose & mannose prior to detoxification"}, {"measurement": "Productivity", "setting": "[2]; [7]", "result": 2.8, "unit": "g EtOH×L^−1×h^−1"}, {"measurement": "Yield (ethanol)", "setting": "[2]; [7]", "result": "0.43 g EtOH/g consumed glucose & mannose"}]}]}
